Assay results taken from patent publication US20170340905A1, “MACROCYCLIC KETONE AS MALODOR COUNTERACTING INGREDIENT” (Firmenich SA, priority 2014, published 2017).
In brackets after ≈: the same amount, converted by molar mass. Marks after values point to notes of the source that are not given here.

What was measured:
[1] = Sensory malodor reduction test, Sniffin' Sticks odor pens, body malodor; conditions: for Average Perceived Malodor Intensity (APMI) / Average Perceived Overall Odor Intensity (APOOI): scale 0-10
Description: (§1) The Compound 1, as defined above, was tested, using current sensory analysis methods, for its ability to reduce the perception of bathroom, tobacco, kitchen, pet and body malodors.
(§2) In the following description, the test concentration of the malodor sample used in each case was selected so as to provide a perceived malodor intensity, when evaluated in Sniffin' Sticks odor pens as described below, that was approximately of the order of 6 units on the scale described under Section C below.
Body malodor: 0.5% by weight in propylene glycol
(§3) The test concentration of the Compound 1 used in each of the malodor reduction tests was selected so as to provide a perceived intensity, when evaluated in Sniffin' Sticks odor pens as described below, that was approximately of the order of 6 units on the scale described under Section C below. The concentration of Compound 1 that was perceived as comprising an odor intensity of about 6 when evaluated in Sniffin' Sticks odor pens was 16% by weight in propylene glycol.
(§4) Stock solutions were prepared as follows: • Compound 1 32% by weight: 12.8 g of Compound 1 was mixed with 27.2 g of propylene glycol. • Bathroom malodor 0.6% by weight: 0.6 g of bathroom malodor was mixed with 99.4 g of propylene glycol. • Kitchen malodor 60% by weight: 12.0 g of kitchen malodor was mixed with 8.0 g of propylene glycol. • Body malodor 1% by weight: 1.0 g of body malodor was mixed with 99.0 g of propylene glycol. • Pet malodor 1% by weight: 1.0 g of pet malodor was mixed with 99.0 g of propylene glycol. • The tobacco malodor was used as is.
(§5) Each sensory test comprised 3 samples: a malodor only sample; a test sample comprising a combination of […] and the test malodor; and, a Compound 1 only sample. The samples for the sensory tests were prepared as follows:
(§6) Malodor only sample: in a separate beaker 3.0 g of malodor stock solution, was mixed with 3.0 g of propylene glycol. Once fully homogenized, 2.0 g of the resulting solution was applied to the absorbent fiber in the body of a Sniffin' Stick odor pen (origin: Burghart Messtechnik GmbH). The odor pen was immediately capped and allowed to equilibrate for 24 hours before use.
as §6, with “Compound 1” for “Malodor”, “Compound 1” for “malodor”, “solution” for “solution,”
as §6, with “Test samples:” for “Malodor only sample:”, “Compound 1” for “malodor”, “solution” for “solution,”, “malodor stock solution.” for “propylene glycol.”
(§7) The samples were assessed by a panel of 19 trained panelists. By “trained panelists” we mean here individuals that had previously been screened for olfactive acuity and were experienced in rating the perfume and malodor intensity. Moreover, the panelists were prior acquainted with the malodor sample before carrying out the malodor reduction efficacy test.
(§8) Each test comprised a malodor only sample, a Compound 1 only sample, and a test sample that comprised Compound 1 and the malodor. […]

[2] = test system: Morganella morganii URI62; assay: MIC test in 96 well plates; type: cell-based; conditions: M. morganii, associated with urine/bathroom
Description: (§9) Bacterial solutions of four bacterial strains were prepared for MIC test as follows. Stock cultures stored at -80° C. were subcultured onto agar plate media, and incubated at 37° C. for 24 h to obtain single colonies. Single colonies of the primary cultures were inoculated into broth media and incubated at 37° C., 160 rpm overnight. Aliquots of overnight cultures were inoculated into 50 ml of fresh broth media, and incubated at 37° C., 160 rpm. When the OD reached the target value for each strain (see Table 1), cells were harvested by centrifugation at 5000 rpm for 10 min, and then resuspended in the same fresh broth media at the same volume before the centrifugation. Aliquots (1.1 ml) of each cell suspension were diluted in 200 ml of the same broth media as the bacterial solutions for the MIC test. [table] Sample solutions of casmirone and reference material ([…]) were prepared as follows. Stock solutions of 1% and 20% were prepared in ethanol, and then seven serial dilutions of each stock solution were prepared in ethanol to obtain a total of 16 solutions of casmirone or the reference material. Aliquot (10 μl) of each solution was used for MIC test. The tested final concentrations of each material were 29, 44, 66, 99, 148, 222, 333, 500, 590, 900, 1300, 2000, 3000, 4500, 6700, 10000 ppm. The test material control was trans-hexenal, a known material for MIC tests and control tests (e.g. see Int J Food Microbiol. 2010 January 1;136(3):304-9). MIC test were performed in 96 well plates. […] Column 1 contained bacterial solution only (the positive growth control), and column 12 contained growth media only (the negative growth control). Aliquots (10 μl) of sample solutions were mixed with 190 μl of bacterial solutions in growth media, at concentrations of 10^5 to 10^6 cfu/ml, in wells of the 96 well plates. Three replicates for solution. The 96 wells plates were incubated at 37° C., 160 rpm overnight. After incubation, wells of 96 well plates were examined. Turbid wells were regarded as an indication of microbial growth. Minimal inhibition concentration (MIC) was determined as the lowest concentration where no growth was observed. Average MIC value of the three replicates was calculated against each strain (see Table 3).

[3] = test system: Streptococcus agalactiae URI3; assay: MIC test in 96 well plates; type: cell-based; conditions: S. agalactiae, associated with urine/bathroom
Description: as §9

[4] = test system: Staphylococcus haemolyticus ATCC 114126; assay: MIC test in 96 well plates; type: cell-based; conditions: S. haemolyticus, associated with body odor
Description: as §9

[5] = test system: Staphylococcus aureus DSMZ 1104; assay: MIC test in 96 well plates; type: cell-based; conditions: S. aureus, associated with hygiene
Description: as §9

[6] = Sensory malodor reduction test, Sniffin' Sticks odor pens, tobacco malodor; conditions: for Average Perceived Malodor Intensity (APMI) / Average Perceived Overall Odor Intensity (APOOI): scale 0-10
Description: as §1
The tobacco malodor was prepared by extraction of cigarette debris, comprising: ash; filter; and, paper. The debris from 30 smoked Marlboro lied cigarettes (origin: Philip Morris International) was collected in a 500 ml glass powder jar with a screw closure. 300 ml of ethanol was added. The combination was mixed in a Turbula mixer for 8 hours and then filtered through a Whatman Grade 4 filter paper. The filtrate was used as the tobacco malodor.
as §2
Tobacco malodor: 50% by weight in propylene glycol
as §3, §4, §5, §6
as §6, with “Compound 1” for “Malodor”, “Compound 1” for “malodor”, “solution” for “solution,”
as §6, with “Test samples:” for “Malodor only sample:”, “Compound 1” for “malodor”, “solution” for “solution,”, “malodor stock solution.” for “propylene glycol.”
The samples were assessed by a panel of 19 trained panelists. […]

[7] = Sensory malodor reduction test, Sniffin' Sticks odor pens, pet malodor; conditions: for Average Perceived Malodor Intensity (APMI) / Average Perceived Overall Odor Intensity (APOOI): scale 0-10
Description: as §1, §2
Pet malodor: 0.5% by weight, in propylene glycol
as §3, §4, §5, §6
as §6, with “Compound 1” for “Malodor”, “Compound 1” for “malodor”, “solution” for “solution,”
as §6, with “Test samples:” for “Malodor only sample:”, “Compound 1” for “malodor”, “solution” for “solution,”, “malodor stock solution.” for “propylene glycol.”
as §7, §8

[8] = Sensory malodor reduction test, Sniffin' Sticks odor pens, kitchen malodor; conditions: for Average Perceived Malodor Intensity (APMI) / Average Perceived Overall Odor Intensity (APOOI): scale 0-10
Description: as §1, §2
Kitchen malodor: 30% by weight in propylene glycol
as §3, §4, §5, §6
as §6, with “Compound 1” for “Malodor”, “Compound 1” for “malodor”, “solution” for “solution,”
as §6, with “Test samples:” for “Malodor only sample:”, “Compound 1” for “malodor”, “solution” for “solution,”, “malodor stock solution.” for “propylene glycol.”
as §7, §8

[9] = Sensory malodor reduction test, Sniffin' Sticks odor pens, bathroom malodor; conditions: for Average Perceived Overall Odor Intensity (APOOI) / Average Perceived Malodor Intensity (APMI): scale 0-10
Description: as §1, §2
Bathroom malodor: 0.3% by weight in propylene glycol
as §3, §4, §5, §6
as §6, with “Compound 1” for “Malodor”, “Compound 1” for “malodor”, “solution” for “solution,”
as §6, with “Test samples:” for “Malodor only sample:”, “Compound 1” for “malodor”, “solution” for “solution,”, “malodor stock solution.” for “propylene glycol.”
as §7, §8

[10] = Compound 1 + Malodor vs Malodor Only
[11] = Compound 1 + Malodor: 0.01 g body malodor, 0.32 g Compound 1, 1.67 g propylene glycol
[12] = Compound 1 Only: 0.32 g Compound 1, 1.68 g propylene glycol, body malodor test
[13] = Compound 1 + Malodor: 1.00 g tobacco malodor, 0.32 g Compound 1, 0.68 g propylene glycol
[14] = Compound 1 Only: 0.32 g Compound 1, 1.68 g propylene glycol, tobacco malodor test
[15] = Compound 1 + Malodor: 0.01 g pet malodor, 0.32 g Compound 1, 1.67 g propylene glycol
[16] = Compound 1 Only: 0.32 g Compound 1, 1.68 g propylene glycol, pet malodor test
[17] = Compound 1 + Malodor: 0.60 g kitchen malodor, 0.32 g Compound 1, 1.08 g propylene glycol
[18] = Compound 1 Only: 0.32 g Compound 1, 1.68 g propylene glycol, kitchen malodor test
[19] = Compound 1 Only: 0.320 g Compound 1, 1.680 g propylene glycol, bathroom malodor test

MIC ([2]; Morganella morganii, URI62, average of three replicates, 37° C. overnight): 900 µg/mL (≈ 5.05 mM) | MIC ([3]; Streptococcus agalactiae, URI3, average of three replicates, 37° C. overnight): 3430 µg/mL (≈ 19.3 mM) | MIC ([5]; Staphylococcus aureus, DSMZ1104, average of three replicates, 37° C. overnight): 333 µg/mL (≈ 1.87 mM)
Compound: O=C1CCC=CCCC=CCCC1 [Compound 1, 4,8-cyclododecadien-1-one]
reducing the perceived intensity of body malodor [1, 10]: efficient | Average Perceived Malodor Intensity (APMI) [1, 11]: 2.78 * | Average Perceived Overall Odor Intensity (APOOI) [1, 11]: 5.61 | Average Perceived Malodor Intensity (APMI) [1, 12]: 0.83 * | Average Perceived Overall Odor Intensity (APOOI) [1, 12]: 6.39 | activity in application [2]: (compound 1 is efficiently active in application) | activity in application [3]: (compound 1 is moderately active in application) | activity in application [4]: (compound 1 is efficiently active in application) | MIC ([4]; Staphylococcus haemolyticus, ATCC114126, average of three replicates, 37° C. overnight): 345 µg/mL (≈ 1.94 mM) | activity in application [5]: (compound 1 is efficiently active in application) | reducing the perceived intensity of tobacco malodor [6, 10]: efficient | Average Perceived Malodor Intensity (APMI) [6, 13]: 3.35 * | Average Perceived Overall Odor Intensity (APOOI) [6, 13]: 5.85 | Average Perceived Malodor Intensity (APMI) [6, 14]: 1.27 * | Average Perceived Overall Odor Intensity (APOOI) [6, 14]: 6.07 | reducing the perceived intensity of pet malodor [7, 10]: efficient | Average Perceived Malodor Intensity (APMI) [7, 15]: 4.84 * | Average Perceived Overall Odor Intensity (APOOI) [7, 15]: 6.70 | Average Perceived Malodor Intensity (APMI) [7, 16]: 0.93 * | Average Perceived Overall Odor Intensity (APOOI) [7, 16]: 6.01 | reducing the perceived intensity of kitchen malodor [8, 10]: efficient | Average Perceived Malodor Intensity (APMI) [8, 17]: 2.49 * | Average Perceived Overall Odor Intensity (APOOI) [8, 17]: 5.51 | Average Perceived Malodor Intensity (APMI) [8, 18]: 0.95 * | Average Perceived Overall Odor Intensity (APOOI) [8, 18]: 5.78 | reducing the perceived intensity of bathroom malodor [9, 10]: efficient | Average Perceived Overall Odor Intensity (APOOI) ([9]; Compound 1 + Malodor: 0.006 g bathroom malodor, 0.320 g Compound 1, 1.674 g propylene glycol): 5.99 | Average Perceived Malodor Intensity (APMI) ([9]; Compound 1 + Malodor: 0.006 g bathroom malodor, 0.320 g Compound 1, 1.674 g propylene glycol, 19 panelists): 1.61 * | Average Perceived Malodor Intensity (APMI) [9, 19]: 0.91 * | Average Perceived Overall Odor Intensity (APOOI) [9, 19]: 5.75
